Assay results from patent US9221807B2, “Substituted pyridones and pyrazinones and their use as inhibitors of neutrophil elastase activity” (Boehringer Ingelheim International GmbH, priority 2014, dated 2015).

Target: T1, Human neutrophil elastase (Homo sapiens, UniProt P08246)
T1 construct: purchased Calbiochem 324681
T1 sequence (P08246 30-267): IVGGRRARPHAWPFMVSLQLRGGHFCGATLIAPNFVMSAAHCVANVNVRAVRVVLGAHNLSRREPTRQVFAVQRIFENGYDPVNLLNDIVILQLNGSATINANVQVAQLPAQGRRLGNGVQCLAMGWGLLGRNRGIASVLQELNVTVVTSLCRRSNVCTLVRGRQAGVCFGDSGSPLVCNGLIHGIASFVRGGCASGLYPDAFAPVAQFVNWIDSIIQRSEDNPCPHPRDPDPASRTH
Experiment: Human Neutrophil Elastase Assay
Format: biochemical
Details: substrate MeOSuc-Ala-Ala-Pro-Val-AMC 250 μM, pH 7.5, fluorescence
Procedure: Human Neutrophil Elastase Assay
Materials: Human neutrophil elastase was purchased from Calbiochem (Cat. No.: 324681) and the elastase substrate MeOSuc-Ala-Ala-Pro-Val-AMC from Bachem (Cat. No.: 1-1270). All other materials were of the highest grade commercially available. The following buffers were used: Compound buffer: 100 mM Tris, 500 mM NaCl, adjusted to pH 7.5; Assay buffer: 100 mM Tris, 500 mM NaCl, adjusted to pH 7.5, containing 0.01% BSA. Assay conditions: Test compounds were prediluted in DMSO and subsequently in compound buffer (5% DMSO final). 5 μL of these compound dilutions were mixed with 10 μl Neutrophil elastase (9 ng/ml in assay buffer) in a black 384 well OptiPlate (Perkin Elmer, Cat No.: 6007270) and incubated for 15 min at room temperature. Subsequently 10 μL substrate solution in assay buffer were added (250 μM final concentration) and the plates were incubated for 60 min at room temperature. After inactivation of the enzyme, fluorescence intensities were measured at 380 nm excitation and 460 nm emission wavelengths. Each plate contains wells with a high value control (DMSO+enzyme+substrate) and wells with a low value control (DMSO+inactivated enzyme+substrate). IC50 values were estimated using a sigmoidal concentration response curve with variable slope. Means of low values were taken as 0%, means of high values as 100%.

SMILES	IC50
Cc1c(-c2ccnn2C)cc(C(=O)NCc2ccc(S(C)(=O)=NC(N)=O)cc2)c(=O)n1-c1cccc(C(F)(F)F)c1 (centres unmarked) [Example 6, N-[[4-(N-Carbamoyl-S-methyl-sulfonimidoyl)phenyl]methyl]-6-methyl-5-(2-methyl-pyrazol-3-yl)-2-oxo-1-[3-(trifluoromethyl)phenyl]pyridine-3-carboxamide]	45.8 nM
Cc1c(-c2ccnn2C)cc(C(=O)NCc2ccc(S(C)(=N)=O)cc2)c(=O)n1-c1cccc(C(F)(F)F)c1 (single isomer, unassigned) [Example 4B]	41.5 nM
COCCN=S(C)(=N)c1ccc(CNC(=O)c2cc(-c3ccnn3C)c(C)n(-c3cccc(C(F)(F)F)c3)c2=O)cc1 (centres unmarked) [Example 15, N-[[4-[N-(2-Methoxyethyl)-S-methyl-sulfonodiimidoyl]phenyl]methyl]-6-methyl-5-(2-methylpyrazol-3-yl)-2-oxo-1-[3-(trifluoromethyl)phenyl]pyridine-3-carboxamide]	43.5 nM
Cc1c(-c2ccnn2C)cc(C(=O)NCc2ccc(S(C)(=O)=NS(C)(=O)=O)cc2)c(=O)n1-c1cccc(C(F)(F)F)c1 (centres unmarked) [Example 9.3]	12.6 nM
Cc1c(-c2ccnn2C)cc(C(=O)NCc2ccc(S(C)=N)cc2)c(=O)n1-c1cccc(C(F)(F)F)c1 (centres unmarked) [Example 2, 6-Methyl-5-(2-methylpyrazol-3-yl)-N-[[4-(methylsulfinimidoyl)phenyl]methyl]-2-oxo-1-[3-(trifluoromethyl)phenyl]pyridine-3-carboxamide]	42 nM
Cc1c(-c2ccnn2C)cc(C(=O)NCc2ccc(S(C)(=O)=NC#N)cc2)c(=O)n1-c1cccc(C(F)(F)F)c1 (racemic) [Example 3, N-[[4-(N-Cyano-S-methyl-sulfonimidoyl)phenyl]methyl]-6-methyl-5-(2-methylpyrazol-3-yl)-2-oxo-1-[3-(trifluoromethyl)phenyl]pyridine-3-carboxamide]	2.6 nM
CN=S(C)(=N)c1ccc(CNC(=O)c2cc(-c3ccnn3C)c(C)n(-c3cccc(C(F)(F)F)c3)c2=O)cc1 (centres unmarked) [Example 15.1]	88.7 nM
Cc1c(-c2ccnn2C)cc(C(=O)NCc2ccc(S(C)(=N)=O)cc2)c(=O)n1-c1cccc(C(F)(F)F)c1 (racemic) [Example 4, 6-Methyl-5-(2-methylpyrazol-3-yl)-N-[[4-(methylsulfonimidoyl)phenyl]methyl]-2-oxo-1-[3-(trifluoromethyl)phenyl]pyridine-3-carboxamide]	173 nM
Cc1c(-c2ccnn2C)nc(C(=O)NCc2ccc(S(C)(=O)=NC#N)cc2)c(=O)n1-c1cccc(C(F)(F)F)c1 (single isomer, unassigned) [Example 16, N-[[4-(N-Cyano-S-methyl-sulfonimidoyl)phenyl]methyl]-5-methyl-6-(2-methylpyrazol-3-yl)-3-oxo-4-[3-(trifluoromethyl)phenyl]pyrazine-2-carboxamide]	11.1 nM
Cc1c(-c2ccnn2C)cc(C(=O)NCc2ccc(S(C)(=N)=NC#N)cc2)c(=O)n1-c1cccc(C(F)(F)F)c1 (centres unmarked) [Example 15.2]	6.7 nM
Cc1c(-c2ccnn2C)cc(C(=O)NCc2ccc(S(C)(=O)=NC#N)cc2)c(=O)n1-c1cccc(C(F)(F)F)c1 (single isomer, unassigned) [Example 3B]	2.3 nM
Cc1c(-c2ccnn2C)cc(C(=O)NCc2ccc(/S(C)=N/C#N)cc2)c(=O)n1-c1cccc(C(F)(F)F)c1 (centres unmarked) [Example 1, N-[[4-(N-Cyano-S-methyl-sulfinimidoyl)phenyl]methyl]-6-methyl-5-(2-methyl-pyrazol-3-yl)-2-oxo-1-[3-(trifluoromethyl)phenyl]pyridine-3-carboxamide]	1.2 nM
Cc1c(-c2ccnn2C)cc(C(=O)NCc2ccc(S(C)(=O)=NC(=O)N3CCOCC3)cc2)c(=O)n1-c1cccc(C(F)(F)F)c1 (centres unmarked) [Example 9.2]	72.7 nM
CN=S(=O)(c1ccc(CNC(=O)c2cc(-c3ccnn3C)c(C)n(-c3cccc(C(F)(F)F)c3)c2=O)cc1)N(C)OC (centres unmarked) [Example 1.3]	12.5 nM
Cc1c(-c2ccnn2C)cc(C(=O)NCc2ccc(S(C)(=O)=N/C(N)=N/O)cc2)c(=O)n1-c1cccc(C(F)(F)F)c1 (centres unmarked) [Example 8, N-[[4-[N—[N-Hydroxycarbamimidoyl]-S-methyl-sulfonimidoyl]phenyl]methyl]-6-methyl-5-(2-methylpyrazol-3-yl)-2-oxo-1-[3-(trifluoromethyl)phenyl]pyridine-3-carboxamide]	64.4 nM
COC(=O)N=S(C)(=O)c1ccc(CNC(=O)c2cc(-c3ccnn3C)c(C)n(-c3cccc(C(F)(F)F)c3)c2=O)cc1 (centres unmarked) [Example 9, Methyl N-[Methyl-[4-[[[6-methyl-5-(2-methylpyrazol-3-yl)-2-oxo-1-[3-(trifluoromethyl)phenyl]pyridine-3-carbonyl]amino]methyl]phenyl]-oxo-λ^6-sulfanylidene]-carbamate]	17.6 nM
Cc1c(-c2ccnn2-c2ccc(C#N)cc2)nc(C(=O)NCc2ccc(S(C)(=O)=NC#N)cc2)c(=O)n1-c1cccc(C(F)(F)F)c1 (single isomer, unassigned) [Example 17, N-[[4-(N-Cyano-S-methyl-sulfonimidoyl)phenyl]methyl]-6-[2-(4-cyanophenyl)pyrazol-3-yl]-5-methyl-3-oxo-4-[3-(trifluoromethyl)phenyl]pyrazine-2-carboxamide]	< 1 nM
CN=S(=O)(NCc1ccccc1)c1ccc(CNC(=O)c2cc(-c3ccnn3C)c(C)n(-c3cccc(C(F)(F)F)c3)c2=O)cc1 (centres unmarked) [Example 1.2]	14.4 nM
Cc1nc(N=S(C)(=O)c2ccc(CNC(=O)c3cc(-c4ccnn4C)c(C)n(-c4cccc(C(F)(F)F)c4)c3=O)cc2)oc1C (centres unmarked) [Example 7, N-[[4-[N-(4,5-Dimethyloxazol-2-yl)-S-methyl-sulfonimidoyl]phenyl]methyl]-6-methyl-5-(2-methylpyrazol-3-yl)-2-oxo-1-[3-(trifluoromethyl)phenyl]pyridine-3-carboxamide]	34.3 nM
Cc1c(-c2ccnn2C)cc(C(=O)NCc2ccc(/S(C)=N/C(N)=O)cc2)c(=O)n1-c1cccc(C(F)(F)F)c1 (centres unmarked) [Example 5, N-[[4-(N-Carbamoyl-S-methyl-sulfinimidoyl)phenyl]methyl]-6-methyl-5-(2-methyl-pyrazol-3-yl)-2-oxo-1-[3-(trifluoromethyl)phenyl]pyridine-3-carboxamide]	35.7 nM
CN=S(=O)(c1ccc(CNC(=O)c2cc(-c3ccnn3C)c(C)n(-c3cccc(C(F)(F)F)c3)c2=O)cc1)N1CCCCC1 (stereo not drawn) [Example 13, 6-Methyl-N-[[4-[N-methyl-S-(1-piperidyl)sulfonimidoyl]phenyl]methyl]-5-(2-methyl-pyrazol-3-yl)-2-oxo-1-[3-(trifluoromethyl)phenyl]pyridine-3-carboxamide]	28.4 nM
Cc1c(-c2ccnn2C)cc(C(=O)NCc2ccc(S(C)(=N)=N)cc2)c(=O)n1-c1cccc(C(F)(F)F)c1 [Example 14, 6-Methyl-5-(2-methylpyrazol-3-yl)-N-[[4-(methylsulfonodiimidoyl)phenyl]methyl]-2-oxo-1-[3-(trifluoromethyl)phenyl]pyridine-3-carboxamide]	261 nM
CN=S(C)(=O)c1ccc(CNC(=O)c2cc(-c3ccnn3C)c(C)n(-c3cccc(C(F)(F)F)c3)c2=O)cc1 (centres unmarked) [Example 11, N-[[4-(N,S-Dimethylsulfonimidoyl)phenyl]methyl]-6-methyl-5-(2-methylpyrazol-3-yl)-2-oxo-1-[3-(trifluoromethyl)phenyl]pyridine-3-carboxamide]	40.3 nM
Cc1c(-c2ccnn2C)cc(C(=O)NCc2ccc(S(C)(=N)=O)cc2)c(=O)n1-c1cccc(C(F)(F)F)c1 (single isomer, unassigned) [Example 4A]	93.9 nM
Cc1c(-c2ccnn2C)cc(C(=O)NCc2ccc(S(C)(=O)=NC#N)cc2)c(=O)n1-c1cccc(C(F)(F)F)c1 (single isomer, unassigned) [Example 3A]	4.5 nM
Cc1c(-c2ccnn2C)cc(C(=O)NCc2ccc(S(C)(=O)=N[N+](=O)[O-])cc2)c(=O)n1-c1cccc(C(F)(F)F)c1 (centres unmarked) [Example 12, 6-Methyl-N-[[4-(S-methyl-N-nitro-sulfonimidoyl)phenyl]methyl]-5-(2-methylpyrazol-3-yl)-2-oxo-1-[3-(trifluoromethyl)phenyl]pyridine-3-carboxamide]	5 nM
CN=S(=O)(c1ccc(CNC(=O)c2cc(-c3ccnn3C)c(C)n(-c3cccc(C(F)(F)F)c3)c2=O)cc1)N(C)C (centres unmarked) [Example 1.1]	11.4 nM
CNC(=O)N=S(C)(=O)c1ccc(CNC(=O)c2cc(-c3ccnn3C)c(C)n(-c3cccc(C(F)(F)F)c3)c2=O)cc1 (centres unmarked) [Example 10, 6-Methyl-N-[[4-[S-methyl-N-(methylcarbamoyl)sulfonimidoyl]phenyl]methyl]-5-(2-methylpyrazol-3-yl)-2-oxo-1-[3-(trifluoromethyl)phenyl]pyridine-3-carboxamide]	50 nM
CC(=O)N=S(C)(=O)c1ccc(CNC(=O)c2cc(-c3ccnn3C)c(C)n(-c3cccc(C(F)(F)F)c3)c2=O)cc1 (centres unmarked) [Example 9.1]	37 nM
